Measured values: patent US20260224688A1, “HELPER LIPIDS FOR NUCLEIC ACID DELIVERY” (SANOFI PASTEUR INC., priority 2023, published 2026)

How the values were obtained:
[1] = mRNA encapsulation efficiency of lipid nanoparticles; assay type: physicochemical; settings: for Encapsulation efficiency (EE): LNP with cationic lipid CL-A
From the text: In embodiments, the lipid nanoparticle encapsulates a nucleic acid, optionally an mRNA encoding a peptide or protein. In embodiments, the lipid nanoparticle encapsulates an mRNA encoding a peptide or protein, optionally for use in a vaccine. In embodiments, the peptide is an antigen. As used herein, the phrase “encapsulation percentage” refers to the fraction of therapeutic agent (e.g. mRNA) that is effectively encapsulated within a liposomal-based vehicle (e.g. a lipid nanoparticle) relative to the initial fraction of therapeutic agent present in the lipid phase. In embodiments, the lipid nanoparticles have an encapsulation percentage for mRNA of at least 50%. In embodiments, the lipid nanoparticles have an encapsulation percentage for mRNA of at least 55%. In embodiments, the lipid nanoparticles have an encapsulation percentage for mRNA of at least 60%. In embodiments, the lipid nanoparticles have an encapsulation percentage for mRNA of at least 65%. In embodiments, the lipid nanoparticles have an encapsulation percentage for mRNA of at least 70%. In embodiments, the lipid nanoparticles have an encapsulation percentage for mRNA of at least 75%. In embodiments, the lipid nanoparticles have an encapsulation percentage for mRNA of at least 80%. In embodiments, the lipid nanoparticles have an encapsulation percentage for mRNA of at least 85%. In embodiments, the lipid nanoparticles have an encapsulation percentage for mRNA of at least 90%. In embodiments, the lipid nanoparticles have an encapsulation percentage for mRNA of at least 95%. In embodiments, the encapsulation percentage is calculated by performing the Ribogreen assay (Invitrogen) with and without the presence of 0.1% Triton-X 100.
The lipid nanoparticles in the examples of the present invention were formulated using Process A of WO 2018/089801 (see, e.g., Example 1 and FIG. 1 of WO 2018/089801). Process A (“A”) relates to a conventional method of encapsulating mRNA by mixing mRNA with a mixture of lipids, without first pre-forming the lipids into lipid nanoparticles. In an exemplary process, an ethanolic solution of a mixture of lipids (cationic lipid, phosphatidylethanolamine, cholesterol, and polyethylene glycol-lipid) at a fixed lipid to mRNA ratio were combined with an aqueous buffered solution of target mRNA at an acidic pH under controlled conditions to yield a suspension of uniform LNPs. After ultrafiltration and diafiltration into a suitable diluent system, the resulting nanoparticle suspensions were diluted to final concentration, filtered, and stored frozen at −80° C. until use.
(§1) Lipid nanoparticle formulations 3 were prepared by Process A at a molar ratio of 40:1.5:30:28.5 (Cationic Lipid: DMG-PEG2000: Cholesterol: Helper Lipid) with the cationic lipids and helper lipids disclosed in the tables below. The Polydispersity Index (Pdl) of lipid nanoparticles can be determined by diluting the formulation in 10% trehalose at about 0.1 mg/ml mRNA concentration and then measuring the size on Malvern zetasizer. The lipid nanoparticle size can be obtained with Malvern Zetasizer Nano-ZS.

hEPO [2] = assay: IV EPO expression of LNPs (tail vein injection); assay type: in vivo, female BALB/cJ mice; settings: cationic lipid CL-0137, helper lipid 30 mol %; 0.017 μg EPO mRNA tail vein; 6 hours; DOPE = 1
Procedure: Lipid nanoparticles were formulated containing the four lipid components shown below at a ratio of 40:30:28.5:1.5, complexed with a hEPO messenger RNA. • Cationic lipid CL-0137, 40 mol % • Helper lipid, 30 mol % • Cholesterol, 28.5 mol % • DMG-PEG-2K (1,2-dimyristoyl-rac-glycero-3-methoxypolyethyleneglycol), 1.5 mol %
EPO expression studies were conducted with female BALB/cJ mice 6-8 weeks of age. Mice were dosed with 0.017 μg EPO mRNA LNPs in a volume of 5 ul by a single tail vein injection. Blood samples were taken 6 hours post injection and hEPO levels were measured in the blood serum of the mice using an ELISA assay according to the manufacture's protocol.

[3] = Dynamic light scattering of lipid nanoparticles (size, PDI); assay type: physicochemical
Procedure: as §1
Dynamic light scattering (DLS) measurements were performed using a Malvern Instruments Zetasizer with a backscattering detector angle of 173° and a 4-mW, 633-nm He—Ne laser (Worcestershire, UK). The samples were analyzed by diluting in 10% Trehalose and measuring the size and Poly dispersity Index (PDI) in an optical grade polystyrene cuvette.

hEPO [4] = assay: IM EPO expression of LNPs containing new helper lipids (hEPO in serum by ELISA); assay type: in vivo, female BALB/cJ mice; settings: single IM injection; for 24-h EPO: serum 24 hours post injection
Procedure: Lipid nanoparticles were formulated containing the four lipid components shown below at a ratio of 40:30:28.5:1.5, complexed with a hEPO messenger RNA. • Cationic lipid, 40 mol % • Phospholipid (PEA) helper lipid, 30 mol % • Cholesterol, 28.5 mol % • DMG-PEG-2K (1,2-dimyristoyl-rac-glycero-3-methoxypolyethyleneglycol), 1.5 mol % The cationic lipid component of each formulation was selected from the compounds in the table below: […]
EPO expression studies were conducted with female BALB/cJ mice 6-8 weeks of age. Mice were dosed with […] EPO mRNA in 30 μL of LNPs by a single intramuscular (IM) injection into the gastrocnemius leg muscle. Blood samples were taken 6 and 24 hours post injection and hEPO levels were measured in the blood serum of the mice using an ELISA assay according to the manufacture's protocol. WO2022/099003 A1 also describes an in vivo assay for intramuscular administration (e.g. on page 46, paragraph [00206]).

[5] = LNP with cationic lipid CL-A, hEPO mRNA, 40:30:28.5:1.5
[6] = CL-A LNP, 0.1 μg EPO mRNA in 30 μL, serum 6 hours post injection
[7] = CL-B LNP, serum 6 hours post injection

SMILES	Encapsulation efficiency (EE) [1]	EE ([1]; LNP with cationic lipid CL-B)	EE ([1]; LNP with cationic lipid CL-C)	EE ([1]; LNP with cationic lipid CL-D)	Polydispersity Index (PDI) ([3]; LNP with cationic lipid CL-A)	Size [3, 5]	PDI ([3]; LNP with cationic lipid CL-B)	Size ([3]; LNP with cationic lipid CL-B)	PDI ([3]; LNP with cationic lipid CL-C)	Size ([3]; LNP with cationic lipid CL-C)	PDI ([3]; LNP with cationic lipid CL-D)	Size ([3]; LNP with cationic lipid CL-D)	Normalized Mean IV EPO expression (hEPO [2])	6-h EPO (hEPO [4]; [6])	24-h EPO (hEPO [4]; CL-A LNP)	6-h EPO (hEPO [4]; [7])	24-h EPO (hEPO [4]; CL-B LNP)	6-h EPO (hEPO [4]; CL-C LNP)	6-h EPO (hEPO [4]; CL-C LNP, (6-h))	further results
CCCCCCCCC(CCCCC)COC(=O)CCC(=O)OCC(COP(=O)(O)OCCN(C)C)OC(=O)CCC(=O)OCC(CCCCC)CCCCCCCC (stereo not drawn) [Compound 10, O,O′-(3-(((2-(Dimethylamino)ethoxy)(hydroxy)phosphoryl)-oxy)propane-1,2-diyl) bis(2-pentyldecyl) disuccinate)]	90%	83%	84%	93%	0.046	171 nm	0.086	95.9 nm	0.022	89.3 nm	0.129	100.5 nm	1.72	20.227 ng/mL	10.447 ng/mL	12.9 ng/mL	10.4 ng/mL	10.3 ng/mL	14.8 ng/mL	–
CCCCCCCCOC(=O)CCCCCCCC(=O)OCC(COP(=O)(O)OCCN(C)C)OC(=O)CCCCCCCC(=O)OCCCCCCCC (stereo not drawn) [Compound 7, O′^1,O^1-(3-(((2-(Dimethylamino)ethoxy)(hydroxy)phosphoryl)oxy)-propane-1,2-diyl) 9-dioctyl di(nonanedioate)]	88%	92%	92%	85%	0.09	120 nm	0.111	88.2 nm	0.099	87.4 nm	0.089	121.9 nm	0.52	–	–	3.7 ng/mL	1.4 ng/mL	2.6 ng/mL	5.5 ng/mL	–
CCCCCCCCC(CCCCC)COC(=O)CCC(=O)OCC(COP(=O)(O)OCCN)OC(=O)CCC(=O)OCC(CCCCC)CCCCCCCC (stereo not drawn) [Compound 5, O,O′-(3-(((2-Aminoethoxy)(hydroxy)phosphoryl)oxy)propane-1,2-diyl) bis(2-pentyldecyl) disuccinate]	91%	90%	88%	–	0.106	121 nm	0.108	98.9 nm	0.047	97.9 nm	–	–	1.25	–	–	9.8 ng/mL	6.4 ng/mL	10.1 ng/mL	13.3 ng/mL	–

More lines, main results first:

Encapsulation efficiency (EE) [1]	EE ([1]; LNP with cationic lipid CL-B)	EE ([1]; LNP with cationic lipid CL-C)	EE ([1]; LNP with cationic lipid CL-D)	Polydispersity Index (PDI) ([3]; LNP with cationic lipid CL-A)	Size [3, 5]	PDI ([3]; LNP with cationic lipid CL-B)	Size ([3]; LNP with cationic lipid CL-B)	PDI ([3]; LNP with cationic lipid CL-C)	Size ([3]; LNP with cationic lipid CL-C)	PDI ([3]; LNP with cationic lipid CL-D)	Size ([3]; LNP with cationic lipid CL-D)	SMILES	Normalized Mean IV EPO expression (hEPO [2])	6-h EPO (hEPO [4]; [6])	24-h EPO (hEPO [4]; CL-A LNP)	6-h EPO (hEPO [4]; [7])	24-h EPO (hEPO [4]; CL-B LNP)	6-h EPO (hEPO [4]; CL-C LNP)	6-h EPO (hEPO [4]; CL-C LNP, (6-h))	further results
94%	93%	92%	–	0.075	136 nm	0.095	112.7 nm	0.078	110.6 nm	–	–	CCCCCCCCCCC(CCCCCCCCCC)OC(=O)CCCCCCC(=O)OCC(COP(=O)(O)OCCN(C)C)OC(=O)CCCCCCC(=O)OC(CCCCCCCCCC)CCCCCCCCCC (stereo not drawn) [Compound 19, O′1,O1-(3-(((2-(dimethylamino)ethoxy)(hydroxy)phosphoryl)oxy)propane-1,2-diyl) 8-di(henicosan-11-yl) di(octanedioate)]	2.59	11.7 ng/mL	–	28.9 ng/mL	–	–	12.9 ng/mL	–
94%	88%	86%	93%	0.068	173 nm	0.066	102.1 nm	0.119	85.5 nm	0.121	96.6 nm	CCCCCCCCOC(=O)CCCCCCCC(=O)OC(COC(=O)CCCCCCC(=O)OC(CCCCCCCC)CCCCCCCC)COP(=O)(O)OCCN(C)C (stereo not drawn) [Compound 11, 1-(1-(((2-(Dimethylamino)ethoxy)(hydroxy)phosphoryl)oxy)-3-((8-(heptadecan-9-yloxy)-8-oxooctanoyl)oxy)propan-2-yl) 9-octyl nonanedioate]	1.17	19.251 ng/mL	11.25 ng/mL	5.2 ng/mL	4.8 ng/mL	7.4 ng/mL	8.7 ng/mL	–
94%	87%	85%	–	0.055	160 nm	0.111	107.0 nm	0.116	108.8 nm	–	–	CCCCCCCCC(CCCCCCCC)OC(=O)CCCCCCC(=O)OCC(COP(=O)(O)OCC[N+](C)(C)C)OC(=O)CCCCCCC(=O)OC(CCCCCCCC)CCCCCCCC (stereo not drawn) [Compound 24, 2-(((2,3-Bis((8-(heptadecan-9-yloxy)-8-oxooctanoyl)oxy)propoxy)(hydroxy)-phosphoryl)oxy)-N,N,N-trimethylethan-1-aminium]	1.82	19.2 ng/mL	–	29.4 ng/mL	–	–	19.5 ng/mL	–
93%	93%	90%	92%	0.050	160 nm	0.132	109.6 nm	0.072	110.1 nm	0.094	113.4 nm	CCCCCCCCC(CCCCCCCC)OC(=O)CCCCCCC(=O)OCC(COP(=O)(O)OCCN(C)C)OC(=O)CCCCCCC(=O)OC(CCCCCCCC)CCCCCCCC (stereo not drawn) [Compound 12, O′^1,O^1-(3-(((2-(Dimethylamino)ethoxy)(hydroxy)phosphoryl)-oxy)propane-1,2-diyl) 8-di(heptadecan-9-yl) di(octanedioate)]	2.23	28.9209 ng/mL	19.526 ng/mL	39.6 ng/mL	24 ng/mL	26.2 ng/mL	38.4 ng/mL	EE ([1]; LNP with cationic lipid CL-E): 91%; PDI ([3]; LNP with cationic lipid CL-E): 0.072; Size ([3]; LNP with cationic lipid CL-E): 112.6 nm
